Data on 24 compounds can be found in patent publication US5043349A, “Substituted pyrrole angiotensin II antagonists” (E. I. Du Pont de Nemours and Company, priority 1990, dated 1991).

SMILES strings stand for the structures. Where two headings read alike, the source gives them in different places. Some results are limits rather than exact numbers.

One data set has as its target AII receptor. As to the kind of experiment: Angiotensin II receptor binding (displacement of 3H-AII from rat adrenal cortical microsomes). The conditions noted are these: 50% displacement of specifically bound 3H-AII (2 nM), 1 hour, room temperature. On the procedure: The hormone angiotensin II (AII) produces numerous biological responses (e.g. vasoconstriction) through stimulation of its receptors on cell membranes. […] The reaction mixture contained rat adrenal cortical microsomes (source of AII receptor) in Tris buffer and 2 nM of ^3 H-AII with or without potential AII antagonist. This mixture was incubated for 1 hour at room temperature and the reaction was subsequently terminated by rapid filtration and rinsing through glass micro-fibre filter. Receptor-bound ^3 H-AII trapped in filter was quantitated by scintillation counting.

The test system of a further data set is Renal Hypertensive Rats. In words: Antihypertensive effects in renal hypertensive rats (ligation of the left renal artery). The format is in vivo. The conditions noted are these: Rattus norvegicus. On the procedure:
This procedure increases blood pressure by increasing renin production with consequent elevation of AII levels. Compounds are administered orally and/or intravenously via a cannula in the jugular vein. Arterial blood pressure is continuously measured directly through a carotid artery cannula and recorded using a pressure transducer and a polygraph. Blood pressure levels after treatment are compared to pretreatment levels to determine the antihypertensive effects of the compounds (See Table 5).

A further data set concerns AII. The conditions noted are these: cited from earlier work.
The next data set deals with arterial pressure. The conditions noted are these: cited from earlier work.
The mark [1] stands for this setting: iv, read-out: Antihypertensive Effects in Renal Hypertensive Rats, Intravenous Activity.
[2] abbreviates: po, read-out: Antihypertensive Effects in Renal Hypertensive Rats, Oral Activity.

Regarding `CCCCc1cn(Cc2ccc(-c3ccccc3C(=O)O)cc2)nn1` [Example 1, 4-Butyl-1-[(2'-carboxybiphenyl-4-yl)methyl]-1,2,3-triazole], the IC50 on AII receptor worked out at 3 µM. The minimal effective dose with Renal Hypertensive Rats (setting [1]) and in the data set with Renal Hypertensive Rats (setting [2]) was above 100 mg/kg in each case.

Consider `CCCCc1cnnn1Cc1ccc(-c2ccccc2C(=O)O)cc1` [Example 2], for which, on AII receptor, the concentration for half-maximal inhibition (IC50) was found to be 1 µM. The minimal effective dose with Renal Hypertensive Rats (setting [1]) was at most 10 mg/kg; with Renal Hypertensive Rats (setting [2]) it was at most 100 mg/kg.

On AII receptor, `CCCCc1cn(Cc2ccc(-c3ccccc3-c3nn[nH]n3)cc2)nn1` [Example 3, 4-Butyl-1-[2'-(1H-tetrazol-5-yl)-biphenyl-4-yl]methyl-1,2,3-triazoles] showed a 50% inhibitory concentration (IC50) of 6 µM. In addition, the minimal effective dose is at most 10 mg/kg with Renal Hypertensive Rats (setting [1]) and at most 100 mg/kg in the data set with Renal Hypertensive Rats (setting [2]).

With `CCCCc1cnnn1Cc1ccc(-c2ccccc2-c2nn[nH]n2)cc1` [Example 4], the half-maximal inhibitory concentration (IC50) on AII receptor was 0.3 µM. In addition, the minimal effective dose in the data set on Renal Hypertensive Rats (setting [1]) was at most 10 mg/kg; with Renal Hypertensive Rats (setting [2]), at most 100 mg/kg.

On to `CCCCc1nnc(COC)n1Cc1ccc(-c2ccccc2C(=O)O)cc1` [Example 67, 3-Butyl-5-methoxymethyl-4-[(2'-carboxybiphenyl-4-yl)methyl]-1,2,4-triazole], for which the half-maximal inhibitory concentration (IC50) at AII receptor was determined as 0.82 µM. Moreover, the minimal effective dose in the data set on Renal Hypertensive Rats (setting [1]) is at most 10 mg/kg; in the data set on Renal Hypertensive Rats (setting [2]), above 100 mg/kg.

`CCCCc1nncn1Cc1ccc(-c2ccccc2C(=O)O)cc1` [Example 68, 3-Butyl-4-[(2'-carboxybiphenyl-4-yl)methyl]-1,2,4-triazole]: the IC50 on AII receptor worked out at 1.8 µM. The minimal effective dose was at most 10 mg/kg in the data set on Renal Hypertensive Rats (setting [1]) and above 100 mg/kg in the data set on Renal Hypertensive Rats (setting [2]).

As for `CCCc1nnc(COC)n1Cc1ccc(-c2ccccc2C(=O)O)cc1` [Example 69, 3-Methoxymethyl-5-propyl-4-[(2'-carboxybiphenyl-4-yl)methyl]-1,2,4-triazole], the IC50 at AII receptor came out at 0.73 µM. Moreover, the results for the minimal effective dose in the data set on Renal Hypertensive Rats (setting [1]) and in the data set on Renal Hypertensive Rats (setting [2]) were at most 10 mg/kg and above 100 mg/kg, respectively.

Compound `CCc1nnc(COC)n1Cc1ccc(-c2ccccc2C(=O)O)cc1` [Example 70, 3-Ethyl-5-methoxymethyl-4-[(2'-carboxybiphenyl-4-yl)methyl]-1,2,4-triazole] showed an IC50 on AII receptor of 5 µM. Further, the minimal effective dose in the data set with Renal Hypertensive Rats (setting [1]) is at most 10 mg/kg; in the data set on Renal Hypertensive Rats (setting [2]), above 100 mg/kg.

At AII receptor, `CCCCc1nnc(CCCC)n1Cc1ccc(-c2ccccc2C(=O)O)cc1` [Example 71, 3,5-Dibutyl-4-[(2'-carboxybiphenyl-4-yl)methyl]-1,2,4-triazole] came in with an IC50 of 0.82 µM. The figures for the minimal effective dose with Renal Hypertensive Rats (setting [1]) and with Renal Hypertensive Rats (setting [2]) were at most 10 mg/kg and above 100 mg/kg, respectively.

In the case of `CCCc1nnc(COC)n1Cc1ccc(-c2ccccc2-c2nnn[nH]2)cc1` [Example 72, 3-Methoxymethyl-5-propyl-4-[(2'-(1H-tetrazol-5-yl)biphenyl-4-yl)methyl]-1,2,4-triazole], the half-inhibitory concentration (IC50) on AII receptor worked out at 0.14 µM. The minimal effective dose in the data set with Renal Hypertensive Rats (setting [1]) is at most 10 mg/kg; with Renal Hypertensive Rats (setting [2]) it was at most 100 mg/kg.

Consider `CCCCc1cc(COC)n(Cc2ccc(-c3ccccc3C(=O)O)cc2)n1` [Example 170, 5-Methoxymethyl-3-butyl-1-[(2'-carboxybiphenyl-4-yl)methyl]pyrazole], for which the concentration for half-maximal inhibition (IC50) at AII receptor came out at 7.3 µM. In addition, the minimal effective dose in the data set on Renal Hypertensive Rats (setting [1]) is at most 10 mg/kg; in the data set with Renal Hypertensive Rats (setting [2]), above 100 mg/kg.

Take `CCCCc1cc(COC)nn1Cc1ccc(-c2ccccc2C(=O)O)cc1` [Example 171, 3-Methoxymethyl-5-butyl-1-[(2'-carboxybiphenyl-4-yl)methyl]pyrazole]: the IC50 at AII receptor was 0.29 µM. In addition, the minimal effective dose in the data set on Renal Hypertensive Rats (setting [1]) was at most 10 mg/kg; in the data set on Renal Hypertensive Rats (setting [2]), at most 100 mg/kg.

In the case of `C=CCCc1cc(COC)nn1Cc1ccc(-c2ccccc2C(=O)O)cc1` [Example 172, 3-Methoxymethyl-5-but-3-enyl-1-[(2'-carboxybiphenyl-4-yl)methyl]-pyrazole], the IC50 at AII receptor turned out to be 0.72 µM. Besides, the results for the minimal effective dose with Renal Hypertensive Rats (setting [1]) and with Renal Hypertensive Rats (setting [2]) were at most 10 mg/kg and at most 100 mg/kg, respectively.

For `CCCc1cc(COC)nn1Cc1ccc(-c2ccccc2C(=O)O)cc1` [Example 173, 3-Methoxymethyl-5-propyl-1-[(2'-carboxybiphenyl-4-yl)methyl]pyrazole], at AII receptor, the IC50 is 6.7 µM. For the same compound, the minimal effective dose is at most 10 mg/kg in the data set on Renal Hypertensive Rats (setting [1]) and at most 100 mg/kg in the data set with Renal Hypertensive Rats (setting [2]).

In turn, `CCCc1cc(COC)n(Cc2ccc(-c3ccccc3C(=O)O)cc2)n1` [Example 174] returned an IC50 at AII receptor above 1 µM. For the same compound, the minimal effective dose in the data set on Renal Hypertensive Rats (setting [1]) is at most 10 mg/kg; in the data set on Renal Hypertensive Rats (setting [2]), above 100 mg/kg.

At AII receptor, `CCCc1cc(C(=O)O)nn1Cc1ccc(-c2ccccc2C(=O)O)cc1` [Example 175, 3-Carboxy-5-propyl-1-[(2'-carboxybiphenyl-4-yl)methyl]pyrazole] gave an IC50 of 9.5 µM. Besides, in the data set with Renal Hypertensive Rats (setting [1]), the minimal effective dose is at most 10 mg/kg.

Regarding `CCCc1cc(CO)nn1Cc1ccc(-c2ccccc2C(=O)O)cc1` [Example 176, 3-Hydroxymethyl-5-propyl-1-[(2'-carboxybiphenyl-4-yl)methyl]pyrazole], the IC50 on AII receptor is 2.3 µM. In addition, the minimal effective dose with Renal Hypertensive Rats (setting [1]) and with Renal Hypertensive Rats (setting [2]) was above 30 mg/kg in each case.

Consider `CCCc1cc(CO)n(Cc2ccc(-c3ccccc3C(=O)O)cc2)n1` [Example 177, 5-Hydroxymethyl-3-propyl-1-[(2'-carboxybiphenyl-4-yl)methyl]pyrazole], for which the IC50 on AII receptor was above 3 µM. For the same compound, the minimal effective dose with Renal Hypertensive Rats (setting [1]) and in the data set on Renal Hypertensive Rats (setting [2]) was above 30 mg/kg in each case.

Turning to `CCCc1cc(C=O)nn1Cc1ccc(-c2ccccc2C(=O)O)cc1` [Example 178, 3-Formyl-5-propyl-1-[(2'-carboxybiphenyl-4-yl)methyl]pyrazole], the IC50 at AII receptor amounted to 4.1 µM. Further, the figures for the minimal effective dose in the data set on Renal Hypertensive Rats (setting [1]) and with Renal Hypertensive Rats (setting [2]) were at most 10 mg/kg and at most 100 mg/kg, respectively.

`CCCc1cc(C=O)n(Cc2ccc(-c3ccccc3C(=O)O)cc2)n1` [Example 179, 5-Formyl-3-propyl-1-[(2'-carboxybiphenyl-4-yl)methyl]pyrazole]: the IC50 at AII receptor was above 3 µM. The minimal effective dose in the data set with Renal Hypertensive Rats (setting [1]) and in the data set on Renal Hypertensive Rats (setting [2]) was above 30 mg/kg throughout.

Turning to `CCCc1ccc(C(=O)OCC)n1Cc1ccc(-c2ccccc2-c2nnn[nH]2)cc1` [Example 277, Ethyl 5-n-propyl-1-[2'-(1H-tetrazol-5-yl)biphenyl-4-yl-methyl]pyrrole-2-carboxylate], the 50% inhibitory concentration (IC50) at AII receptor was 1.6 µM. Moreover, the minimal effective dose was at most 10 mg/kg with Renal Hypertensive Rats (setting [1]) and at most 100 mg/kg in the data set with Renal Hypertensive Rats (setting [2]).

For the compound `CCCc1ccc(C(=O)OCC)n1Cc1ccc(-c2ccccc2C(=O)O)cc1` [Example 278, Ethyl 5-n-propyl-1-[(2'-carboxybiphenyl-4-yl)methyl]pyrrole-2-carboxylate], at AII receptor, the IC50 was above 3 µM. Moreover, the minimal effective dose in the data set on Renal Hypertensive Rats (setting [1]) and in the data set with Renal Hypertensive Rats (setting [2]) was above 30 mg/kg throughout.

In turn, `CCCc1ccc(C(=O)O)n1Cc1ccc(-c2ccccc2C(=O)O)cc1` [Example 279, 5-n-Propyl-1-[(2'-carboxybiphenyl-4-yl)methyl]-pyrrole-2-carboxylic acid] gave an IC50 at AII receptor above 12 µM. For the same compound, the minimal effective dose with Renal Hypertensive Rats (setting [1]) is at most 10 mg/kg; in the data set on Renal Hypertensive Rats (setting [2]) it was at most 100 mg/kg.

In the case of `CNCC(=O)N[C@@H](CCCN=C(N)N)C(=O)N[C@H](C(=O)N[C@@H](Cc1ccc(O)cc1)C(=O)N[C@H](C(=O)N[C@@H](Cc1cnc[nH]1)C(=O)N1CCC[C@H]1C(=O)N[C@@H](C)C(=O)O)C(C)C)C(C)C` [Saralasin, [Sar^1, Ala^8] AII], in the data set on AII (pithed rats), the “antagonism of the actions of AII” value was “one of the most potent competitive antagonists of the actions of AII”. In addition, in the data set on AII (rat, in vivo), the “agonistic actions of its own” value was “possessed agonistic actions of its own”. Also, the “effect when the pressure is not sustained by AII” value in the data set with arterial pressure (due to its agonistic character) was “generally elicits pressor effects”. In addition, the “effect on arterial pressure when the (elevated) pressure is dependent on circulating AII” value with arterial pressure (mammals and man) is “lower arterial pressure in mammals and man”. The “effect of oral doses” value in the data set with arterial pressure (oral) is listed as “ineffective”. The “duration of pharmacological effects” value in the data set with arterial pressure (parenteral administration) is “relatively short-lasting”.
